Where two headings read alike, the source gives them in different places.
Legend:
human TLR9 = human TLR9 (Homo sapiens (Human), UniProt Q9NR96); assay: TLR9 inhibition reporter assay (HEK-Blue cells, SEAP reporter, ODN2006 stimulation);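 also: compounds tested over 0.05 nM to 50 µM, 22 h incubation, inhibition taken as SEAP signal drop from agonist plus DMSO wells toward a known inhibitor control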
human TLR8 = human TLR8 (Homo sapiens (Human), UniProt Q9NR97); assay: TLR8 inhibition reporter assay (HEK-Blue cells, SEAP reporter, R848 stimulation);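 also: compounds tested from 0.05 nM to 50 µM, 22 h at 37 °C, SEAP measured with HEK-Blue Detection, inhibition relative to agonist plus DMSO versus a known inhibitor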
human TLR8, sequence (Q9NR97 27-1041): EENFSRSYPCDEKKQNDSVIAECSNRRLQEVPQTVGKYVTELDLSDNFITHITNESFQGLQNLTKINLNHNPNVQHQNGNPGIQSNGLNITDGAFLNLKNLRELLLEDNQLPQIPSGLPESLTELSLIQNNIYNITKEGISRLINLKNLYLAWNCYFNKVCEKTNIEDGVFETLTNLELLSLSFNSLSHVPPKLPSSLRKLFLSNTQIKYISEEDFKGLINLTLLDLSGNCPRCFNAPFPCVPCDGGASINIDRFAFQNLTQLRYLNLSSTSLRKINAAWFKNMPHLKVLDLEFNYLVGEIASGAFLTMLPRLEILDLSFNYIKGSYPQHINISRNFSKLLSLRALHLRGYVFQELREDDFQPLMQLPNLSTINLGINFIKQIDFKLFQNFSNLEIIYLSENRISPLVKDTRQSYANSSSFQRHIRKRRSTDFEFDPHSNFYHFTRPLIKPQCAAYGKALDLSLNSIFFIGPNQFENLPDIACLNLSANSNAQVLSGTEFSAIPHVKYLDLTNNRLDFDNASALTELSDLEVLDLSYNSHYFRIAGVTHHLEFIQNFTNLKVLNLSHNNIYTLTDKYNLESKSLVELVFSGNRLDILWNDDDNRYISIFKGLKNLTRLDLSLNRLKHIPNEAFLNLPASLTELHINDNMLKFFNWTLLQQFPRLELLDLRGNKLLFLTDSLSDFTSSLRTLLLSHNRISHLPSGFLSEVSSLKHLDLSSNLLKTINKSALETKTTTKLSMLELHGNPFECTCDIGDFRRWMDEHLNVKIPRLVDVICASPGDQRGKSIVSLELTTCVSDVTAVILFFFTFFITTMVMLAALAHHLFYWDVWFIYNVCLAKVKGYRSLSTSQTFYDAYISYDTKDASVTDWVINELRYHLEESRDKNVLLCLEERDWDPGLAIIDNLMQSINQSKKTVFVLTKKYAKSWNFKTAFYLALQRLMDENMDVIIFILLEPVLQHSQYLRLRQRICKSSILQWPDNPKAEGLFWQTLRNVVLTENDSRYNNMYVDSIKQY

human TLR7 = human TLR7 (Homo sapiens (Human), UniProt Q9NYK1); assay: TLR7 inhibition reporter assay (HEK-Blue cells, SEAP reporter, gardiquimod stimulation); type: cell-based
human TLR7, sequence (Q9NYK1 27-1049): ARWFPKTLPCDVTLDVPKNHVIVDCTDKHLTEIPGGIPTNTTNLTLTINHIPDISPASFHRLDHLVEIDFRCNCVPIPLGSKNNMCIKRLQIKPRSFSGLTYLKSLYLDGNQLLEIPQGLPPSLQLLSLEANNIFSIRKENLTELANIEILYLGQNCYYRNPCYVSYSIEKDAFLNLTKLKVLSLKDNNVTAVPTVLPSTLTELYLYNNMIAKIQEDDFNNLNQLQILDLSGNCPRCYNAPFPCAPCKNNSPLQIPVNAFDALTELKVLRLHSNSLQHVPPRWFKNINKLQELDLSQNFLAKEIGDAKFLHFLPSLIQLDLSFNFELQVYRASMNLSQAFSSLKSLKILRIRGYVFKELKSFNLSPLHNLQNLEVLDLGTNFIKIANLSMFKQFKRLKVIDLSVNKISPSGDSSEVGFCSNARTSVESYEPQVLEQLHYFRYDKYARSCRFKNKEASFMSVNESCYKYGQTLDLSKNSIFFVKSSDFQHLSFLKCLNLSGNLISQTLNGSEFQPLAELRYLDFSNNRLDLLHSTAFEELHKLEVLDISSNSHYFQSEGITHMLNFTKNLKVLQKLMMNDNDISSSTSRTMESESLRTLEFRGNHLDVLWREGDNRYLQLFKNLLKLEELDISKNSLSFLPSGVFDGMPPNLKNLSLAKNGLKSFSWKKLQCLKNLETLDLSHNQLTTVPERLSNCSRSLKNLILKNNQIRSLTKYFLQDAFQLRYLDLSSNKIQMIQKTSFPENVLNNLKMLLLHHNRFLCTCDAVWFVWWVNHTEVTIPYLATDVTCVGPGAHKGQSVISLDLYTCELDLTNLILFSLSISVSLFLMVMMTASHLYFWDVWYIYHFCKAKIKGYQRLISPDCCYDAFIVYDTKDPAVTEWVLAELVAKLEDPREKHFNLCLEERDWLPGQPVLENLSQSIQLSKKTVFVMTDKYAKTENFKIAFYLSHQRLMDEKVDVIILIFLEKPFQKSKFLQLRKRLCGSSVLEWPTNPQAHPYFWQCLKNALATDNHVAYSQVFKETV

[1] = read-out: TLR9 IC50, HEK-Blue cells overexpressing human TLR9, ODN2006 5 nM
[2] = read-out: TLR8 IC50, HEK-Blue cells overexpressing human TLR8, R848 15.9 μM
[3] = HEK-Blue cells overexpressing human TLR7, gardiquimod 7.5 μM
[4] = read-out: TLR9 IC50, HEK-Blue cells, ODN2006 5 nM
[5] = read-out: TLR8 IC50, HEK-Blue cells, R848 15.9 μM
[6] = HEK-Blue cells, gardiquimod 7.5 μM

human TLR9, sequence (Q9NR96 26-1032): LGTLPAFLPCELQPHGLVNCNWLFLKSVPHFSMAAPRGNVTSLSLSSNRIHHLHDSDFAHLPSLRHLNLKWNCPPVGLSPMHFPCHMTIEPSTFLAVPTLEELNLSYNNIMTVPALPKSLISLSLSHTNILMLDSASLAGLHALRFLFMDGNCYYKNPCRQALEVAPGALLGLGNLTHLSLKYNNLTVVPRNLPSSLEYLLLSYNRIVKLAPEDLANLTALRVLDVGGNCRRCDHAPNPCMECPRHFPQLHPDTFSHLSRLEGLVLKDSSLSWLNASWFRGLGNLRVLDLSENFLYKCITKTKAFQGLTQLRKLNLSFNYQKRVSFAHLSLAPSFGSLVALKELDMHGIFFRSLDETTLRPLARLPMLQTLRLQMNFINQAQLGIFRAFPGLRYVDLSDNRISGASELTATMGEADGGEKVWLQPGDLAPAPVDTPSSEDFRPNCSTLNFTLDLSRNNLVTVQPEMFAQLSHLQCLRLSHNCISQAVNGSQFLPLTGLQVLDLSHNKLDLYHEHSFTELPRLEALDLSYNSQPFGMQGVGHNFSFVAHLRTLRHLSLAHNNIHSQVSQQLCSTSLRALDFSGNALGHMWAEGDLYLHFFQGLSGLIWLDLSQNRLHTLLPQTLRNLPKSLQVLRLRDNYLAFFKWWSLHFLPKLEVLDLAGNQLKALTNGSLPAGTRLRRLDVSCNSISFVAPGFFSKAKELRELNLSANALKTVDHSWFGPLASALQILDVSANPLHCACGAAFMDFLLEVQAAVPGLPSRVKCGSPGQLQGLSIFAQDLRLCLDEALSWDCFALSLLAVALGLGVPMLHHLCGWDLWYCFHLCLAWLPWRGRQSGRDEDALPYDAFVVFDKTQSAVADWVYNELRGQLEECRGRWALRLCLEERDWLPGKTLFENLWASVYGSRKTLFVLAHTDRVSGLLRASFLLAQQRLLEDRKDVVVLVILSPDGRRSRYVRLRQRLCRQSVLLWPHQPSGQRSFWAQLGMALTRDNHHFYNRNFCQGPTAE

Row | Structure (SMILES) | IC50 (human TLR9; [1]) [nM] | IC50 (human TLR8; [2]) [nM] | IC50 (human TLR7; [3]) [nM] | IC50 (human TLR9; [4]) [nM] | IC50 (human TLR8; [5]) [nM] | IC50 (human TLR7; [6]) [nM] | IC50 (human TLR9; TLR9 IC50, HEK-Blue cells overexpressing human TLR9, ODN2006 5 nM) [nM] | IC50 (human TLR8; TLR8 IC50, HEK-Blue cells overexpressing human TLR8, R848 15.9 μM) [nM]
1 | CCc1c(-c2ccnc(C)c2C)[nH]c2ccc(C3CCNCC3)cc12 [Example 70, 2-(2,3-dimethylpyridin-4-yl)-3-ethyl-5-(piperidin-4-yl)-1H-indole] | 1110 | 47.2 | 120 |  |  |  |  | 
2 | Cc1cc(-c2[nH]c3ccc(C4CCN(Cc5nnc(C6CC6)o5)CC4)cc3c2C(C)C)c(F)cn1 [Example 698, 2-cyclopropyl-5-((4-(2-(5-fluoro-2-methylpyridin-4-yl)-3-isopropyl-1H-indol-5-yl)piperidin-1-yl)methyl)-1,3,4-oxadiazole] | 12400 | 37.6 | 54.2 |  |  |  |  | 
3 | Cc1cc(-c2[nH]c3ccc(C4CCN(CC(=O)N[C@H](C)C(F)(F)F)CC4)cc3c2C(C)C)cc(C)n1 [Example 252, (R)-2-(4-(2-(2,6-dimethylpyridin-4-yl)-3-isopropyl-1H-indol-5-yl)piperidin-1-yl)-N-(1,1,1-trifluoropropan-2-yl)acetamide] | 1810 | 24.4 | 8.3 |  |  |  |  | 
4 | CC(C)c1c(-c2ccnc(N(C)C)c2)[nH]c2ccc(C3CCNCC3)cc12 [Example 24, 4-(3-isopropyl-5-(piperidin-4-yl)-1H-indol-2-yl)-N,N-dimethylpyridin-2-amine] | 1690 | 704 | 1480 |  |  |  |  | 
5 | COCCOC(=O)N1CCC(c2ccc3[nH]c(-c4ccnc(C)c4)c(C(C)C)c3c2)CC1 [Example 561, 2-methoxyethyl 4-(3-isopropyl-2-(2-methylpyridin-4-yl)-1H-indol-5-yl)piperidine-1-carboxylate] | 43900 | 363 | 202 |  |  |  |  | 
6 | Cc1cc(-c2[nH]c3ccc(C4CCN(Cc5cncs5)CC4)cc3c2C(C)C)cc(C)n1 [Example 444, 5-((4-(2-(2,6-dimethylpyridin-4-yl)-3-isopropyl-1H-indol-5-yl)piperidin-1-yl)methyl)thiazole] | 617 | 1.6 | 3.3 |  |  |  |  | 
7 | Cc1cc(-c2[nH]c3ccc(C4CCN(C5CCCOC5)CC4)cc3c2C(C)C)cc(C)n1 (stereo not drawn) [Example 457, 2-(2,6-dimethylpyridin-4-yl)-3-isopropyl-5-(1-(tetrahydro-2H-pyran-3-yl)piperidin-4-yl)-1H-indole] | 274 | 8.7 | 2.7 |  |  |  |  | 
8 | CC(=O)N1CCC(c2ccc3[nH]c(-c4cc(C)nc(C5CC5)c4)c(C(C)C)c3c2)CC1 [Example 504, 1-(4-(2-(2-cyclopropyl-6-methylpyridin-4-yl)-3-isopropyl-1H-indol-5-yl)piperidin-1-yl)ethan-1-one] | 33900 | 638 | 64.2 |  |  |  |  | 
9 | Cc1cc(-c2[nH]c3ccc(C4CCN(C(=O)CN5C[C@H](C)C[C@@H]5CO)CC4)cc3c2C(C)C)cc(C)n1 [Example 410, 1-(4-(2-(2,6-dimethylpyridin-4-yl)-3-isopropyl-1H-indol-5-yl)piperidin-1-yl)-2-((2R,4R)-2-(hydroxymethyl)-4-methylpyrrolidin-1-yl)ethan-1-one] | 481 | 27 | 4.5 |  |  |  |  | 
10 | Cc1cc(-c2[nH]c3ccc(C4CCN(C5CCOCC5)CC4)cc3c2C(C)C)cc(C)n1 [Example 450, 2-(2,6-dimethylpyridin-4-yl)-3-isopropyl-5-(1-(tetrahydro-2H-pyran-4-yl)piperidin-4-yl)-1H-indole] | 572 | 7.9 | 7.8 |  |  |  |  | 
11 | Cc1cc(-c2[nH]c3ccc(C4CCNCC4)cc3c2C(C)C(F)(F)F)cc(C)n1 (stereo not drawn) [Example 92, 2-(2,6-dimethylpyridin-4-yl)-5-(piperidin-4-yl)-3-(1,1,1-trifluoropropan-2-yl)-1H-indole] | 446 | 5.2 | 0.6 |  |  |  |  | 
12 | CCc1c(-c2ccnc(N)c2O)[nH]c2ccc(C3CCNCC3)cc12 [Example 71, 2-amino-4-(3-ethyl-5-(piperidin-4-yl)-1H-indol-2-yl)pyridin-3-ol] | 2830 | 5640 | 7200 |  |  |  |  | 
13 | Cc1cc(-c2[nH]c3ccc(C4CCN(CC(=O)N(C)CC(C)(C)O)CC4)cc3c2C(C)C)cc(C)n1 [Example 305, 2-(4-(2-(2,6-dimethylpyridin-4-yl)-3-isopropyl-1H-indol-5-yl)piperidin-1-yl)-N-(2-hydroxy-2-methylpropyl)-N-methylacetamide] | 271 | 11.1 | 4.9 |  |  |  |  | 
14 | Cc1cc(-c2[nH]c3ccc(C4CCN(Cc5c[nH]cn5)CC4)cc3c2CC(F)F)cc(C)n1 [Example 537, 5-(1-((1H-imidazol-4-yl)methyl)piperidin-4-yl)-3-(2,2-difluoroethyl)-2-(2,6-dimethylpyridin-4-yl)-1H-indole] | 32 | 53.3 | 36.2 |  |  |  |  | 
15 | Cc1cc(-c2[nH]c3ccc(C4CCN(CC5CC5)CC4)cc3c2C(C)C)cc(C)n1 [Example 474, 5-(1-(cyclopropylmethyl)piperidin-4-yl)-2-(2,6-dimethylpyridin-4-yl)-3-isopropyl-1H-indole] | 506 | 3.2 | 2.5 |  |  |  |  | 
16 | Cc1cc(-c2[nH]c3ccc(C4CCN(CC(=O)NCC5CC5)CC4)cc3c2C(C)C)cc(C)n1 [Example 223, N-(cyclopropylmethyl)-2-(4-(2-(2,6-dimethylpyridin-4-yl)-3-isopropyl-1H-indol-5-yl)piperidin-1-yl)acetamide] | 1160 | 10.7 | 3.7 |  |  |  |  | 
17 | Cc1cc(-c2[nH]c3ccc(C4CCN(C(=O)CN(C)C)CC4)cc3c2C2CC2)cc(C)n1 [Example 590, 1-(4-(3-cyclopropyl-2-(2,6-dimethylpyridin-4-yl)-1H-indol-5-yl)piperidin-1-yl)-2-(dimethylamino)ethan-1-one] | 142 | 18.4 | 4.2 |  |  |  |  | 
18 | CC(C)c1c(-c2ccnc(N)c2)[nH]c2ccc(C3CCN(C(=O)C4CCNCC4)CC3)cc12 [Example 819, (4-(2-(2-aminopyridin-4-yl)-3-isopropyl-1H-indol-5-yl)piperidin-1-yl)(piperidin-4-yl)methanone] |  |  |  | 712 | 588 | 415 |  | 
19 | Cc1cc(-c2[nH]c3ccc(C4CCN(C(=O)c5c(C)nn(C)c5C)CC4)cc3c2C(C)C)cc(C)n1 [Example 131, (4-(2-(2,6-dimethylpyridin-4-yl)-3-isopropyl-1H-indol-5-yl)piperidin-1-yl)(1,3,5-trimethyl-1H-pyrazol-4-yl)methanone] | 17500 | 77.1 | 12 |  |  |  |  | 
20 | CCc1c(-c2ccnc(C)c2)[nH]c2ccc(C3CCN(CCC(F)(F)F)CC3)cc12 [Example 863, 3-ethyl-2-(2-methylpyridin-4-yl)-5-(1-(3,3,3-trifluoropropyl)piperidin-4-yl)-1H-indole] |  |  |  | 2450 | 53 | 469 |  | 
21 | Cc1cc(-c2[nH]c3ccc(C4CCN(Cc5nncn5C)CC4)cc3c2C(C)C)c(C)cn1 [Example 736, 2-(2,5-dimethylpyridin-4-yl)-3-isopropyl-5-(1-((4-methyl-4H-1,2,4-triazol-3-yl)methyl)piperidin-4-yl)-1H-indole] | 20100 | 6.5 | 42.3 |  |  |  |  | 
22 | Cc1cc(-c2[nH]c3ccc(C4CCN(C5CCN(C(C)C)CC5)CC4)cc3c2C(C)C)cc(C)n1 [Example 427, 2-(2,6-dimethylpyridin-4-yl)-3-isopropyl-5-(1′-isopropyl-[1,4′-bipiperidin]-4-yl)-1H-indole] | 173 | 8.1 | 8.3 |  |  |  |  | 
23 | Cc1cc(-c2[nH]c3ccc(C4CCN(C(=O)[C@@H](N)CCCN)CC4)cc3c2C(C)C)ccn1 [Example 577, (S)-2,5-diamino-1-(4-(3-isopropyl-2-(2-methylpyridin-4-yl)-1H-indol-5-yl)piperidin-1-yl)pentan-1-one] | 8130 | 58.4 | 121 |  |  |  |  | 
24 | Cc1cc(-c2[nH]c3ccc(C4CCN(CC(O)c5ccccc5)CC4)cc3c2C(C)C)ccn1 (stereo not drawn) [Example 662, 2-(4-(3-isopropyl-2-(2-methylpyridin-4-yl)-1H-indol-5-yl)piperidin-1-yl)-1-phenylethan-1-ol] | 1150 | 29.6 | 60.6 |  |  |  |  | 
25 | Cc1cc(-c2[nH]c3ccc(C4CCN(CC(=O)N5CCC[C@H]5CO)CC4)cc3c2C(C)C)cc(C)n1 [Example 274, (S)-2-(4-(2-(2,6-dimethylpyridin-4-yl)-3-isopropyl-1H-indol-5-yl)piperidin-1-yl)-1-(2-(hydroxymethyl)pyrrolidin-1-yl)ethan-1-one] | 261 | 9.1 | 1.9 |  |  |  |  | 
26 | Cc1cc(-c2[nH]c3ccc(C4CCN(CC(F)F)CC4)cc3c2C(C)C)cc(C)n1 [Example 327, 5-(1-(2,2-difluoroethyl)piperidin-4-yl)-2-(2,6-dimethylpyridin-4-yl)-3-isopropyl-1H-indole] | 3720 | 52.9 | 15.6 |  |  |  |  | 
27 | Cc1cc(-c2[nH]c3ccc(C4CCN(C(=O)CO)CC4)cc3c2C(C)C)cc(C)n1 [Example 116, 1-(4-(2-(2,6-dimethylpyridin-4-yl)-3-isopropyl-1H-indol-5-yl)piperidin-1-yl)-2-hydroxyethan-1-one] |  |  | 3.4 |  |  |  | 32200 | 127
28 | CCc1c(-c2ccnc(C)c2)[nH]c2ccc(C3CCN(C(=O)NC4CCN(C(=O)C(F)(F)F)CC4)CC3)cc12 [Example 846, 4-(3-ethyl-2-(2-methylpyridin-4-yl)-1H-indol-5-yl)-N-(1-(2,2,2-trifluoroacetyl)piperidin-4-yl)piperidine-1-carboxamide] |  |  |  | > 50000 | 1540 | 1590 |  | 

Source: patent US10660877B2 (BRISTOL-MYERS SQUIBB COMPANY, priority 2016, dated 2020)
